{
  "source": "ChEMBL document CHEMBL3886423",
  "about": "“Nitrogen-containing compounds and pharmaceutical compositions thereof for the treatment of atrial fibrillation” (2015)",
  "target": "Potassium voltage-gated channel subfamily A member 5 (Homo sapiens, UniProt P22460)",
  "sequence (P22460 whole entry)": "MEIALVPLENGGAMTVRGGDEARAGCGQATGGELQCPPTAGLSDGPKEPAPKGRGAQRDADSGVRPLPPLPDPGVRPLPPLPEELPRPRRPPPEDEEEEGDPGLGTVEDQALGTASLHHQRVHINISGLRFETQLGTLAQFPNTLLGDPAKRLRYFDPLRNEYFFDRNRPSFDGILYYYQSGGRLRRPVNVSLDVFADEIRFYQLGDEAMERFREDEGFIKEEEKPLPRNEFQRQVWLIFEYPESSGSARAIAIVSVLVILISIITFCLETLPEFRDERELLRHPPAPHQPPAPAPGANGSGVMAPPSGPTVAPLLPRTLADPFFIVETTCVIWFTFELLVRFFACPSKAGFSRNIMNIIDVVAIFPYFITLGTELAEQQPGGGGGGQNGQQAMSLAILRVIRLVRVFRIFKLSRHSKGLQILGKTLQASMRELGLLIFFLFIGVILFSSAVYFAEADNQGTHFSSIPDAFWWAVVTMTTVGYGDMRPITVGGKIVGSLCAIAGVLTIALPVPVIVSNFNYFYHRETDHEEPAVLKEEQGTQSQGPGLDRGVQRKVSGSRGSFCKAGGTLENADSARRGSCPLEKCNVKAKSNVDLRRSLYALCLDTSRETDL",
  "experiment": "Inhibition Assay: CHO-K1 cell lines stably expressing human Kv1.5 channels were prepared in the following manner.Full-length human Kv1.5 cDNA was cloned from a human heart cDNA library (produced by Stratagene). The obtained human Kv1.5 sequence corresponds to the sequence described in FASEB J. 5, 331-337 (1991).The obtained human Kv1.5 cDNA was inserted into a plasmid encoding a CMV promoter and a G418 resistance marker to produce a Kv1.5 expression vector. The human Kv1.5 expression vector was transfected into CHO-K1 cells by the lipofectamine method. After culturing the cells in an F-12 medium (produced by Invitrogen Corp.) containing 10% FBS (produced by Invitrogen Corp.) for 3 or 4 days, the medium was replaced with a FBS-containing F-12 medium that included 1,000 ug/ml of G418 (produced by Invitrogen Corp.), and single colonies were isolated. The amount of Kv1.5 channel expression in the single colonies was quantified at the mRNA level by RT-PCR and then quantified at the protein level.",
  "assay_type": "cell-based",
  "data": [
    {"smiles": "Cn1c(=O)ccc2cc(OCCCCCN(CCc3cccnc3)C(=O)c3cccnc3)ccc21", "values": [
      {"measurement": "IC50", "result": 1400, "unit": "nM"}
    ]}
  ]
}
